{
  "source": "patent US20160109450A1",
  "about": "“METHOD FOR MONITORING METASTASIS OF CANCER CELLS USING CELLS CULTURED IN THREE DIMENSIONAL COLLAGEN ENVIRONMENT” (Medicinal Bioconvergence Research Center, priority 2013, published 2016)",
  "key": {"MDA-MB-231 cell line [1]": {"system": "MDA-MB-231 cell line", "details": "ERK inhibitor treated cells"}, "MDA-MB-231 cell line [2]": {"system": "MDA-MB-231 cell line", "assay": "ChIP (chromatin immunoprecipitation) on snail1 and cortactin promoters", "assay_type": "cell-based, human", "details": "ChIP with anti-pS63 c-Jun antibody", "method": "The cells were then treated with 1.5 M glycine, followed by washing with cold PBS containing protease inhibitor. The fixed cells were loaded in SDS-lysis buffer supplemented with protease/kinase inhibitor, followed by sonication for lysis. The lysed sample proceeded to […] at 13000 rpm for 3 minutes, and the supernatant was transferred into a microcentrifuge tube, followed by sonication again for chromatin fragmentation. Supernatant was obtained by centrifugation, some of which was transferred into input and some of which was reacted with the antibodies of phospho-Ser^63-c-Jun, snail1, and smad 2/3/4 (cell signaling technology, USA) at 4° C. for at least 18 hours. Upon completion of the reaction, the tube was taken out from 4° C., to which sepharose beads coated with protein A and G (1:1), followed by reaction at 4° C. for 4 hours. The tube was then washed with RIPA/150 mM NaCl solution and washed again with RIPA/350 mM NaCl solution. The washed sample was washed again with LiCl washing buffer, which was washed with TE (Tris/EDTA) solution three times. TE solution was added thereto, followed by reaction at 65° C. for 15 hours. On the 3rd day of the reaction, RNase A was added to each input and sample, followed by reaction at 37° C. Proteinase K was added thereto, followed by reaction at 55° C. for 1 hour. […]"}},
  "data": [
    {"smiles": "N#CC(=C(/N)Sc1ccccc1N)/C(C#N)=C(/N)Sc1ccccc1N", "note": "[ERK inhibitor]", "values": [
      {"measurement": "cell growth", "setting": "MDA-MB-231 cell line [1]", "value": "did not grow normally but instead showed dying proneness"}
    ]},
    {"smiles": "Oc1c2ccccc2c2c3c(cccc13)N=N2", "note": "[SP600125]", "values": [
      {"measurement": "binding of c-Jun to snail1 promoter region", "setting": "MDA-MB-231 cell line [2]", "value": "did not bind"}
    ]}
  ]
}
